Experimental data from US20120225909A1, “INDAZOLE ANALOG” (priority 2009, published 2012).

Experiments:
[1] = target: T1, human α1A-adrenergic receptor (Homo sapiens, UniProt P35348); assay: Test Case 4-B: human α1A-adrenergic receptor agonist activity (Cerep cellular functional GPCR, alpha 1A); format: cell-based; parameters: expressed in transfected cells; conditions: concentration 10 μM; for α1 receptor % of Control Agonist Response, Control; Epinephrine: epinephrine = 100%; for α1 receptor % of Control Agonist Response, Control; Norepinephrine: norepinephrine = 100%
T1 sequence (P35348 1-466): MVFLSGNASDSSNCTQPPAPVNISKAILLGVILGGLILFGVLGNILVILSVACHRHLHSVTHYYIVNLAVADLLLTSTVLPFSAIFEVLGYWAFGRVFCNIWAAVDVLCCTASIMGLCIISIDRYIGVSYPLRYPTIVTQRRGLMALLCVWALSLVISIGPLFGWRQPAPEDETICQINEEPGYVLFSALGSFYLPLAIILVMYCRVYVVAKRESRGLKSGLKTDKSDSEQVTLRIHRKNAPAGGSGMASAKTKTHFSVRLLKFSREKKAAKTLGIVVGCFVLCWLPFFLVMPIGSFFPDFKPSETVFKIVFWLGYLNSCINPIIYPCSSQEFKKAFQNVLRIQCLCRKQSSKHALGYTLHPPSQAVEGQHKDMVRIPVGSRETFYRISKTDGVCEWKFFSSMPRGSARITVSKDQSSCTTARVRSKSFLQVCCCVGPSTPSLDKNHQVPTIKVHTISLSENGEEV
Source text: Measurement of Human α1A-Adrenergic Receptor Agonist Activity
The human α1A-adrenergic receptor agonist activity] can be measured by […] Functional GPCR·Gs, alpha 1A (Ref. 722-36a) listed on p. 52 of the Cerep 2008 CATALOG IN VITRO PHARMACOLOGY & ADME-TOX.

[2] = target: T2, human β2-adrenergic receptor (Homo sapiens, UniProt P07550); assay: Test Case 3-C: human β2-adrenergic receptor agonist activity (Cerep cellular functional GPCR, beta 2); format: cell-based; conditions: concentration 10 μM, isoproterenol = 100%
T2 construct: expressed in transfected cells; host or cells: CHO (Chinese hamster ovary) cells, pcDNA3
Source text: (§1) Measurement of Human β2-Adrenergic Receptor Agonist Activity

[3] = target: T3, human β1-adrenergic receptor (Homo sapiens, UniProt P08588); assay: Test Case 2-C: human β1-adrenergic receptor agonist activity (Cerep cellular functional GPCR, beta 1); format: cell-based; conditions: concentration 10 μM, isoproterenol = 100%
T3 construct: expressed in transfected cells; host or cells: CHO (Chinese hamster ovary) cells, pcDNA3
Source text: (§2) Measurement of Human β1-Adrenergic Receptor Agonist Activity

Male C57BL/6 Cr mice = assay: Test Case 10: mouse piloerection test; format: in vivo; conditions: 10 mg/kg i.v.
Description: Male C57BL/6 Cr mice (Japan SLC) are used. The dissolved compound is administered rapidly via a caudal vein. The animal is placed on the observation stand 5, 15, 30, and 60 minutes after administration, and the state of piloerection is observed. The state of piloerection is evaluated by the following 7-level scoring system according to the examples by the method of Irwin (Psychopharmacologia 1968, 13; 222-257).
Scoring system: “Score 0”: No piloerection at all; “Score 1”: Slight piloerection (piloerection on part of the body such as the back or neck); “Score 2”: Moderate piloerection (piloerection over the entire body); “Score 3”: Marked piloerection (piloerection over the entire body, conspicuous to the extent that the skin can be seen).
“Score 0.5” is between “Score 0” and “Score 1” “Score 1.5” is between […]. “Score 2.5” is between “Score 2” and “Score 3.”

[4] = target: T3, human β1-adrenergic receptor; assay: Test Case 2-B: human β1-adrenergic receptor agonist activity; format: cell-based; conditions: read-out: β1 receptor I.A.
Description: as §2
The human β1-adrenergic receptor agonist activity is measured by the same method as in Test Case 1-B using CHO (Chinese hamster ovary) cells transfected by a human β1 gene inserted in pcDNA3 (Invitrogen).

[5] = target: T4, human β3-adrenergic receptor (Homo sapiens, UniProt P13945); assay: Test Case 1-B: human β3-adrenergic receptor agonist activity (cAMP-Screen, 96-well); format: cell-based
T4 construct: A full-length human β3 gene is obtained from a human genomic library (made by Clontech) using this as the probe; expressed in transfected cells; host or cells: CHO (Chinese hamster ovary) cells, pcDNA3
Summary of the method: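 CHO cells stably transfected with full-length human β3 gene, serum-starved 15 min, then exposed to serially diluted compound in Ham's F-12 with 100 mmol/L HEPES and 1 mmol/L IBMX (diluent concentrations) for 30 min. Cells lysed 30 min at 37 °C; cAMP quantified by cAMP-Screen immunoassay.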

[6] = target: T1, human α1A-adrenergic receptor; assay: Test Case 4-A: human α1A-adrenergic receptor agonist activity (HEK293, Ca flux, Fura-2); format: cell-based; parameters: expressed in transfected cells; host or cells: HEK293 cells, pcDNA3.1; conditions: HEK293; read-out: α1A receptor I.A.
Summary of the method: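 Fura-2AM-loaded HEK293 cells transfected with human α1A were preincubated for 180 s. Compound (sample plate 10^−5 to 10^−12 M) was added after ~30 s of 340/380 nm excitation ratio reading (500 nm emission, 2-s intervals), followed by 270 s more reading. Ca flux is the peak height: maximum ratio after addition minus the pre-addition ratio.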

[7] = target: T2, human β2-adrenergic receptor; assay: Test Case 3-B: human β2-adrenergic receptor agonist activity; format: cell-based; conditions: read-out: β2 receptor I.A.
Description: as §1
The human β2-adrenergic receptor agonist activity is measured by the same method as in Test Case 1-B using CHO (Chinese hamster ovary) cells transfected by a human β2 gene inserted in pcDNA3 (Invitrogen).

T2 sequence (P07550 whole entry): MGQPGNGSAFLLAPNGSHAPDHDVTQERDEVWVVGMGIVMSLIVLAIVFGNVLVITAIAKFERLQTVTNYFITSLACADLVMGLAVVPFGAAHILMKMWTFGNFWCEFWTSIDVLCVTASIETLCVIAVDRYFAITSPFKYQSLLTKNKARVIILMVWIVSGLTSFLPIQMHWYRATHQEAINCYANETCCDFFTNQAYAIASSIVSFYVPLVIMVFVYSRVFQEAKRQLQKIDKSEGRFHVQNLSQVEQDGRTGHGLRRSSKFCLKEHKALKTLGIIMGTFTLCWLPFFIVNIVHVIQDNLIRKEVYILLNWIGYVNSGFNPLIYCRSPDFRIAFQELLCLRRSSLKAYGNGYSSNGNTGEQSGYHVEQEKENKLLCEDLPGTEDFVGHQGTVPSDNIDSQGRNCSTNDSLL
T3 sequence (P08588 whole entry): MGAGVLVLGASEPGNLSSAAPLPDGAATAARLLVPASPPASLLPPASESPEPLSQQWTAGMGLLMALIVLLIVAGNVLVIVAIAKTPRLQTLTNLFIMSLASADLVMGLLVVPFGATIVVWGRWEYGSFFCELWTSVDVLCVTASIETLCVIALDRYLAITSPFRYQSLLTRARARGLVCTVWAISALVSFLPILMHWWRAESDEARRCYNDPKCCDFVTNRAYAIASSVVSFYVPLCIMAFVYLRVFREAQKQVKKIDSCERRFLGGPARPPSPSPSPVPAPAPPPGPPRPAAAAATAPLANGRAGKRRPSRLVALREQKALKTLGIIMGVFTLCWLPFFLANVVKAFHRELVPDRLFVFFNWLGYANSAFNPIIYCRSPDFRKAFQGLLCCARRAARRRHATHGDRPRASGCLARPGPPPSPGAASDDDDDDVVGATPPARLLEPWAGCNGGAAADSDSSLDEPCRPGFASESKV
T4 sequence (P13945 whole entry): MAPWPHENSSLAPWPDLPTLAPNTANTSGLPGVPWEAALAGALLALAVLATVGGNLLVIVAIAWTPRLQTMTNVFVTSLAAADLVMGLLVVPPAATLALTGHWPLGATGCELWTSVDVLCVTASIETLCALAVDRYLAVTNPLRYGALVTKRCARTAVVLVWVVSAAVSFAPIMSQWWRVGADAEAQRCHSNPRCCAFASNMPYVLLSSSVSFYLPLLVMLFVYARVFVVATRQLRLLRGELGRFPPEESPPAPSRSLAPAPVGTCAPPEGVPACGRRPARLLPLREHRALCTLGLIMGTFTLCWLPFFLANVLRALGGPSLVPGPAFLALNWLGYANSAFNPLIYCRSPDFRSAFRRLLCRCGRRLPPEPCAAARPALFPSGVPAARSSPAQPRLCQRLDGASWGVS

α1 receptor % of Control Agonist Response, Control; Epinephrine [1]	α1 receptor % of Control Agonist Response, Control; Norepinephrine [1]	β2 receptor % of Control Agonist Response [2]	β1 receptor % of Control Agonist Response [3]	Structure (SMILES)	also measured
16%	14%	0.3%	10%	CCc1n[nH]c2cc(OCCNC[C@H](O)c3cccc(NS(=O)(=O)c4ccccc4F)c3)ccc12 [ex128, (R)-N-(3-(2-(2-(3-ethylindazol-6-yloxy)ethylamino)-1-hydroxyethyl)phenyl)-2-fluorobenzene-sulfonamide]	
−0.2%	−0.2%	0.8%	15%	CCc1n[nH]c2cc(OCCNC[C@H](O)c3cccc(NS(=O)(=O)c4cc(N)ccc4F)c3)ccc12 [ex148, (R)-5-amino-N-(3-(2-(2-(3-ethylindazol-6-yloxy)-ethylamino)-1-hydroxyethyl)phenyl)-2-fluorobenzene-sulfonamide]	
			12%	O=S(=O)(Nc1cccc([C@@H](O)CNCCOc2ccc3c(Cl)n[nH]c3c2)c1)c1cccnc1 [ex155, (R)-N-(3-(2-(2-(3-chloroindazol-6-yloxy)ethylamino)-1-hydroxyethyl)phenyl)pyridine-3-sulfonamide]	α1 receptor % of Control Agonist Response, Control; Epinephrine ([1]; 10 µM): 0%; α1 receptor % of Control Agonist Response, Control; Norepinephrine ([1]; 10 µM): 0%; β2 receptor % of Control Agonist Response ([2]; 10 µM): 2.2%
8.1%	7.0%	3.2%	7.0%	O=S(=O)(Nc1cccc([C@@H](O)CNCCOc2ccc3c(Cl)n[nH]c3c2)c1)c1ccsc1 [ex157, (R)-N-(3-(2-(2-(3-chloroindazol-6-yloxy)ethylamino)-1-hydroxyethyl)phenyl)thiophene-3-sulfonamide]	

Further lines, the compound ahead of its results:

Structure (SMILES)	α1 receptor % of Control Agonist Response, Control; Epinephrine [1]	α1 receptor % of Control Agonist Response, Control; Norepinephrine [1]	β2 receptor % of Control Agonist Response [2]	β1 receptor % of Control Agonist Response [3]	also measured
Cc1n[nH]c2cc(OCCNC[C@H](O)c3cccc(NS(=O)(=O)c4ccc(Cl)c(N)c4)c3)ccc12 [ex7, (R)-3-amino-4-chloro-N-(3-(1-hydroxy-2-(2-(3-methylindazol-6-yloxy)ethylamino)ethyl)phenyl)benzenesulfonamide]	25%	21%	3.7%	15%	
COc1n[nH]c2cc(OCCNC[C@H](O)c3cccc(NS(=O)(=O)c4cn[nH]c4)c3)ccc12 [ex23, (R)-N-( ? -(1-hydroxy-2-(2-(3-methoxyindazol-6-yloxy)ethylamino)ethyl)phenyl)pyrazole-4-sulfonamide]	32%	27%	0.5%	2.1%	
Cc1n[nH]c2cc(OCCNC[C@H](O)c3cccc(NS(=O)(=O)c4ccc(F)c(N)c4)c3)ccc12 [ex58, (R)-3-amino-4-fluoro-N-(3-(1-hydroxy-2-(2-(3-methylindazol-6-yloxy)ethylamino)ethyl)phenyl) benzenesulfonamide]	0.6%	0.5%	1.8%	18%	
Cc1n[nH]c2cc(OCCNC[C@H](O)c3cccc(NS(=O)(=O)c4cc(F)c(F)cc4F)c3)ccc12 [ex85, (R)-2,4,5-trifluoro-N-(3-(1-hydroxy-2-(2-(3-methylindazol-6-yloxy)ethylamino)ethyl)phenyl) benzenesulfonamide]	0.1%	0.1%	1.0%	30%	
Nc1ccc(F)c(S(=O)(=O)Nc2cccc([C@@H](O)CNCCOc3ccc4c(OC(F)F)n[nH]c4c3)c2)c1 [ex106]	−0.2%	−0.2%	2.1%	11%	
CCc1n[nH]c2cc(OCCNC[C@H](O)c3cccc(NS(=O)(=O)C4CC4)c3)ccc12 [ex124, (R)-N-(3-(2-(2-(3-ethylindazol-6-yloxy)ethylamino)-1-hydroxyethyl)phenyl)-cyclopropanesul-fonamide]					number of experimental animals matching Score 0 (no piloerection) (Male C57BL/6 Cr mice; n=4, observation time 5 min): 2; number of experimental animals matching Score 0.5 (Male C57BL/6 Cr mice; n=4, observation time 5 min): 1; number of experimental animals matching Score 1 (slight piloerection) (Male C57BL/6 Cr mice; n=4, observation time 5 min): 1; number of experimental animals matching Score 0.5 (Male C57BL/6 Cr mice; n=4, observation time 15 min): 3; number of experimental animals matching Score 1 (slight piloerection) (Male C57BL/6 Cr mice; n=4, observation time 15 min): 1; number of experimental animals matching Score 0 (no piloerection) (Male C57BL/6 Cr mice; n=4, observation time 30 min): 2; number of experimental animals matching Score 0.5 (Male C57BL/6 Cr mice; n=4, observation time 30 min): 2; number of experimental animals matching Score 0 (no piloerection) (Male C57BL/6 Cr mice; n=4, observation time 60 min): 2; number of experimental animals matching Score 0.5 (Male C57BL/6 Cr mice; n=4, observation time 60 min): 2; Emax [4]: -6%; Emax ([5]; 0.5 h, read-out: β3 receptor I.A.): 52%; EC50 ([5]; Test Case 1-B, CHO cells, cAMP): 0.013 µM; Emax [6]: 0%; Emax [7]: -1%
O=S(=O)(Nc1cccc([C@@H](O)CNCCOc2ccc3c(Cl)n[nH]c3c2)c1)c1cccnc1 [ex156, (R)-N-(3-(2-(2-(3-chloroindazol-6-yloxy)ethylamino)-1-hydroxyethyl)phenyl)pyridine-3-sulfonamide]				12%	α1 receptor % of Control Agonist Response, Control; Epinephrine ([1]; 10 µM): 3.9%; α1 receptor % of Control Agonist Response, Control; Norepinephrine ([1]; 10 µM): 3.4%; β2 receptor % of Control Agonist Response ([2]; 10 µM): 3.5%
O=S(=O)(Nc1cccc([C@@H](O)CNCCOc2ccc3c(Cl)n[nH]c3c2)c1)c1cn[nH]c1 [ex167, (R)-N-(3-(2-(2-(3-chloroindazol-6-yloxy)ethylamino)-1-hydroxyethyl)phenyl)pyrazole-4-sulfonamide]	26%	22%	0.3%	6.4%	
Nc1ccc(F)c(S(=O)(=O)Nc2cccc([C@@H](O)CNCCOc3ccc4c(C(F)(F)F)n[nH]c4c3)c2)c1 [ex185, (R)-5-amimo-2-fluoro-N-(3-(1-hydroxy-2-(2-(3-(trifluoro-methyl)-indazol-6-yloxy)ethylamino)ethyl)phenyl)ben-zenesulfonamide]	6.4%	6%	0.3%	13%	
